Experimental findings from patent publication US9321764B2, “Dihydro-pyrrolopyridinone inhibitors” (AbbVie Inc., priority 2013, dated 2016) are described below.

The term Ki denotes the dissociation constant of the complex between target and ligand, obtained from inhibition or displacement.

The structures appear in SMILES notation.

Test [1] deals with T1, BRD4 (BDI_K57-E168) (Homo sapiens, UniProt O60885).
T1 construct: BD1: amino acids K57-E168; made in house
Nature of the test: TR-FRET bromodomain binding assay, first bromodomain of BRD4. As to conditions: His-tagged BD1, 100 nM Alexa647 probe; TR-FRET protocol A-E given per row. The procedure, abridged:
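His-tagged BRD4 BD1 (K57-E168), 8 nM, with 1 nM Eu-anti-His antibody and 100 nM Alexa647-labelled BET-inhibitor probe in pH 6.0 phosphate buffer, 2% DMSO. TR-FRET read after 1 h at room temperature. IC50 from 4-parameter fit, converted to Ki using probe Kd and concentration.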

The target of test [2] is T2, BRD4 (BDII_E352-M457) (Homo sapiens, UniProt O60885).
T2 construct: proliferation; Protocol; made in house
As to the kind of experiment: TR-FRET bromodomain binding assay, second bromodomain of BRD4. As to conditions: His-tagged BD2, 30 nM Alexa647 probe; TR-FRET protocol A-E given per row. Put shortly:
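His-tagged BRD4 BD2 ([…]) competed against an Alexa647-labelled BET-inhibitor probe in TR-FRET. Buffer was 20 mM sodium phosphate pH 6.0, 50 mM NaCl, 1 mM EDTA, 0.01% Triton X-100, 1 mM DTT, with method D DMSO series of 2.5 mM–800 nM (stock range). IC50 from 4-parameter fit, Ki from probe Kd and concentration.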
A general note: TR-FRET usually uses a lanthanide donor and a delayed reading to cut background.

The subject of test [3] is breast cancer cell line MX-1. Nature of the test: MX-1 cell line proliferation assay. In kind it is cell-based. Particulars: Homo sapiens, MX1, 72 h, MX-1 cells, 3-day proliferation assay, Cell Titer Glo; read-out: Cellular proliferation EC50. The procedure, abridged: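 Cells seeded at 5000/well in RPMI 1640 with 10% FBS, allowed to adhere overnight at 37 °C, then exposed to compound at final 0.0001–3 μM for 3 days. Viability read by Cell Titer Glo luminescence, normalized to DMSO controls; EC50 from sigmoidal curve fit.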
(Cellular ATP, detected with luciferase, serves as a proxy for viable cell number.)

For `CC(=O)Nc1ccc(C(=O)Nc2ccc(Oc3ccc(F)cc3F)c(-c3cn(C)c4c(=O)[nH]ccc34)c2)cc1` [Example 155, 4-(acetylamino)-N-[4-(2,4-difluorophenoxy)-3-(1-methyl-7-oxo-6,7-dihydro-1H-pyrrolo[2,3-c]pyridin-3-yl)phenyl]benzamide], the Ki was determined as 27.8 nM in test [1] and 163 nM in test [2]. Moreover, the EC50 in test [3] amounted to 310 nM.
Regarding `CCS(=O)(=O)Nc1ccc(OC2CCC(F)(F)CC2)c(-c2cn(C)c3c(=O)[nH]ccc23)c1` [Example 8, N-{4[(4,4-difluorocyclohexyl)oxy]-3-(1-methyl-7-oxo-6,7-dihydro-1H-pyrrolo[2,3-c]pyridin-3-yl)phenyl}ethanesulfonamide], the figures for the Ki in test [1] and in test [2] were 1.6 nM and 6.4 nM, respectively. Moreover, in test [3], the EC50 turned out to be 33 nM.
The like results for `Cn1cc(-c2cc(S(C)(=O)=O)ccc2OCC(F)(F)C(F)(F)F)c2cc[nH]c(=O)c21` [Example 64, 1-methyl-3-[5-(methylsulfonyl)-2-(2,2,3,3,3-pentafluoropropoxy)phenyl]-1,6-dihydro-7H-pyrrolo[2,3-c]pyridin-7-one] were, in that order, 36 nM, 57 nM and 84 nM.
Take `COc1ccccc1S(=O)(=O)NCc1ccc(Oc2ccc(F)cc2F)c(-c2cn(C)c3c(=O)[nH]ccc23)c1` [Example 130, N-[4-(2,4-difluorophenoxy)-3-(1-methyl-7-oxo-6,7-dihydro-1H-pyrrolo[2,3-c]pyridin-3-yl)benzyl]-2-methoxybenzenesulfonamide]: the values for the Ki in test [1] and in test [2] were 247 nM and 1150 nM, respectively. Besides, in test [3], the EC50 was greater than 3000 nM.
In the case of `Cn1cc(-c2cc(S(C)(=O)=O)ccc2OCC2COC2)c2cc[nH]c(=O)c21` [Example 30, 1-methyl-3-[5-(methylsulfonyl)-2-(oxetan-3-ylmethoxy)phenyl]-1,6-dihydro-7H-pyrrolo[2,3-c]pyridin-7-one], the Ki in test [1] turned out to be 45 nM; in test [2], 312 nM. In test [3], the EC50 was greater than 3000 nM.
On the same counts, the results for `Cn1cc(-c2cc(S(=O)(=O)N3CC(F)(F)C3)ccc2OCC2CC2)c2cc[nH]c(=O)c21` [Example 125, 3-{2-(cyclopropylmethoxy)-5-[(3,3-difluoroazetidin-1-yl)sulfonyl]phenyl}-1-methyl-1,6-dihydro-7H-pyrrolo[2,3-c]pyridin-7-one] are 69 nM, 92 nM and 267 nM.
On the same counts, the results for `Cc1cccnc1CNc1ccc(Oc2ccc(F)cc2F)c(-c2cn(C)c3c(=O)[nH]ccc23)c1` [Example 169, 3-[2-(2,4-difluorophenoxy)-5-{[(3-methylpyridin-2-yl)methyl]amino}phenyl]-1-methyl-1,6-dihydro-7H-pyrrolo[2,3-c]pyridin-7-one] are 26.5 nM, 107 nM and 132 nM.
On the same counts, the results for `Cc1cnc(C(=O)Nc2ccc(Oc3ccc(F)cc3F)c(-c3cn(C)c4c(=O)[nH]ccc34)c2)cn1` [Example 151, N-[4-(2,4-difluorophenoxy)-3-(1-methyl-7-oxo-6,7-dihydro-1H-pyrrolo[2,3-c]pyridin-3-yl)phenyl]-5-methylpyrazine-2-carboxamide] are 16.1 nM, 32 nM and 200 nM.
In the case of `Cn1cc(-c2cc(NCc3ccc(OCc4ccccc4)cc3)ccc2Oc2ccc(F)cc2F)c2cc[nH]c(=O)c21` [Example 170, 3-[5-{[4-(benzyloxy)benzyl]amino}-2-(2,4-difluorophenoxy)phenyl]-1-methyl-1,6-dihydro-7H-pyrrolo[2,3-c]pyridin-7-one], the figures for the Ki in test [1] and in test [2] were 216 nM and 1100 nM, respectively. Also, in test [3], the EC50 stood at 1020 nM.
On the same counts, the results for `CN(C)C1CCN(Cc2ccc(Oc3ccc(F)cc3F)c(-c3cn(C)c4c(=O)[nH]ccc34)c2)CC1` [Example 113, 3-[2-(2,4-difluorophenoxy)-5-{[4-(dimethylamino)piperidin-1-yl]methyl}phenyl]-1-methyl-1,6-dihydro-7H-pyrrolo[2,3-c]pyridin-7-one] are 583 nM, 506 nM and 1630 nM.
On the same counts, the results for `CCS(=O)(=O)Nc1ccc(OC2CCOCC2)c(-c2cn(C)c3c(=O)[nH]ccc23)c1` [Example 7, N-[3-(1-methyl-7-oxo-6,7-dihydro-1H-pyrrolo[2,3-c]pyridin-3-yl)-4-(tetrahydro-2H-pyran-4-yloxy)phenyl]ethanesulfonamide] are 4 nM, 16 nM and 93 nM.
On the same counts, the results for `CCS(=O)(=O)Nc1ccc(O[C@H]2CC[C@@H](OC)CC2)c(-c2cn(C)c3c(=O)[nH]ccc23)c1` [Example 9, N-{4-[(cis-4-methoxycyclohexyl)oxy]-3-(1-methyl-7-oxo-6,7-dihydro-1H-pyrrolo[2,3-c]pyridin-3-yl)phenyl}ethanesulfonamide] are 12 nM, 29 nM and 128 nM.
For `CCS(=O)(=O)Nc1ccc(Oc2ccc(F)cc2F)c(-c2cn(C)c3c(=O)[nH]c(C(=O)NCCCn4ccnc4)cc23)c1` [Example 187, 3-{2-(2,4-difluorophenoxy)-5-[(ethylsulfonyl)amino]phenyl}-N-[3-(1H-imidazol-1-yl)propyl]-1-methyl-7-oxo-6,7-dihydro-1H-pyrrolo[2,3-c]pyridine-5-carboxamide], the Ki in test [1] is 1.21 nM; in test [2] it was 2.02 nM. In addition, in test [3], the EC50 came to 64.7 nM.
On the same counts, the results for `Cn1cc(-c2cc(S(C)(=O)=O)ccc2OCC2CC2)c2cc[nH]c(=O)c21` [Example 20, 3-[2-(cyclopropylmethoxy)-5-(methylsulfonyl)phenyl]-1-methyl-1,6-dihydro-7H-pyrrolo[2,3-c]pyridin-7-one] are 18 nM, 165 nM and 181 nM.
Regarding `CCS(=O)(=O)C(C)(C)c1ccc(Oc2ccc(F)cc2F)c(-c2cn(C)c3c(=O)[nH]ccc23)c1` [Example 54, 3-{2-(2,4-difluorophenoxy)-5-[2-(ethylsulfonyl)propan-2-yl]phenyl}-1-methyl-1,6-dihydro-7H-pyrrolo[2,3-c]pyridin-7-one], the Ki stood at 3.4 nM in test [1] and 26 nM in test [2]. Besides, the EC50 in test [3] was 21 nM.
For `Cn1cc(-c2cc(S(=O)(=O)N3CCCC3)ccc2O[C@H]2CC[C@H](N(C)C)CC2)c2cc[nH]c(=O)c21` [Example 144, 3-[2-{[trans-4-(dimethylamino)cyclohexyl]oxy}-5-(pyrrolidin-1-ylsulfonyl)phenyl]-1-methyl-1,6-dihydro-7H-pyrrolo[2,3-c]pyridin-7-one], the Ki in test [1] stood at 8.2 nM; in test [2] it was 107 nM. Further, the EC50 in test [3] was found to be 73.1 nM.
On the same counts, the results for `CN(C)S(=O)(=O)Cc1ccc(Oc2ccc(F)cc2F)c(-c2cn(C)c3c(=O)[nH]ccc23)c1` [Example 101, 1-[4-(2,4-difluorophenoxy)-3-(1-methyl-7-oxo-6,7-dihydro-1H-pyrrolo[2,3-c]pyridin-3-yl)phenyl]-N,N-dimethylmethanesulfonamide] are 2.2 nM, 2.5 nM and 5 nM.
In the case of `Cn1cc(-c2cc(NS(=O)(=O)Cc3cc(F)ccc3Cl)ccc2Oc2ccc(F)cc2F)c2cc[nH]c(=O)c21` [Example 181, 1-(2-chloro-5-fluorophenyl)-N-[4-(2,4-difluorophenoxy)-3-(1-methyl-7-oxo-6,7-dihydro-1H-pyrrolo[2,3-c]pyridin-3-yl)phenyl]methanesulfonamide], the values for the Ki in test [1] and in test [2] were 65.8 nM and 128 nM, respectively. Also, the EC50 in test [3] was greater than 1000 nM.
On the same counts, the results for `Cn1cc(-c2cc(CNS(=O)(=O)Cc3ccc(C(F)(F)F)cc3)ccc2Oc2ccc(F)cc2F)c2cc[nH]c(=O)c21` [Example 133, N-[4-(2,4-difluorophenoxy)-3-(1-methyl-7-oxo-6,7-dihydro-1H-pyrrolo[2,3-c]pyridin-3-yl)benzyl]-1-[4-(trifluoromethyl)phenyl]methanesulfonamide] are 49 nM, 2680 nM and 1680 nM.
`CN(CC1CC1)c1ccc(S(C)(=O)=O)cc1-c1cn(C)c2c(=O)[nH]ccc12` [Example 45, 3-{2-[(cyclopropylmethyl)(methyl)amino]-5-(methylsulfonyl)phenyl}-1-methyl-1,6-dihydro-7H-pyrrolo[2,3-c]pyridin-7-one]: the Ki was 37 nM in test [1] and 70 nM in test [2]. Also, the EC50 in test [3] was 279 nM.
On the same counts, the results for `CN1CCN(Cc2ccc(Oc3ccc(F)cc3F)c(-c3cn(C)c4c(=O)[nH]ccc34)c2)CC1` [Example 116, 3-{2-(2,4-difluorophenoxy)-5-[(4-methylpiperazin-1-yl)methyl]phenyl}-1-methyl-1,6-dihydro-7H-pyrrolo[2,3-c]pyridin-7-one] are 93 nM, 145 nM and 578 nM.
